“And” between values parts separate entries of the source, which are not always exact repeats. Equal entries are not always repeated. Where two headings read alike, the source gives them in different places.
Columns and labels:
[1] = not given; remark: listed apart in the source
[2] = females, feces collected in the fourth week of the in vivo study, label = diet group, LOD 0.1 µg/kg
[3] = males, feces collected in the fourth week of the in vivo study, label = diet group, LOD 0.1 µg/kg

C[C@@H]1Cc2c(Cl)cc(C(=O)N[C@@H](Cc3ccccc3)C(=O)O)c(O)c2C(=O)O1 [OTA, ochratoxin A]
Concentration of AFB1 in rat feces [2]: <LOD | Concentration of AFB1 in rat feces [3]: <LOD | Concentration of OTA in rat feces [1, 2]: 933 ± 512 µg mycotoxin/kg dry feces | Concentration of OTA in rat feces [1, 3]: 1729 ± 712 µg mycotoxin/kg dry feces

aflatoxin B1 [AFB1]
Concentration of AFB1 in rat feces (rat, in vivo): 52 ± 61 µg mycotoxin/kg dry feces and 91 ± 77 µg mycotoxin/kg dry feces | Concentration of OTA in rat feces ([1]; rat, in vivo): <LOD

Reference: article PMC11821233, “Impact of Bioactive Ingredients on the Fecal Excretion of Aflatoxin B1 and Ochratoxin A in Wistar Rats” (Molecules, 2025)
